Test results from US20130267484A1, “TREATMENT OF RHEUMATOID ARTHRITIS WITH MASITINIB” (AB SCIENCE, priority 2010, published 2013).

Tested on: DMARD-refractory active RA
Assay: Phase 2a trial of masitinib in DMARD-refractory active RA: efficacy (ACR, ACRn, CRP, DAS28)
Type: in vivo, Human
Design: ACRn Mean ± SD / ACRn Median: unit not given here
Text: The main exclusion criteria were patients with: inadequate bone marrow function, defined as an absolute neutrophil count ≦2.5×10^9/litre, and platelets ≦100×10^9/litre; active current infection, history of infection requiring hospitalisation, history of recurrent infections, or treatment with antibiotics within 2 weeks of screening. Treatment wash-out periods observed prior to entry to the study were: a) DMARD use within 4 weeks; b) five half-lives, or wash-out in accordance for a specific drug, whichever is longer; c) any live (attenuated) vaccines taken within 4 weeks; d) use of more than one NSAID or its dosage change within 4 weeks; e) prednisone or equivalent corticosteroid dosage >10 mg/day or any dosage change within 4 weeks; and f) prednisone or equivalent corticosteroid dosage >20 mg administered via intra-articular injection, bolus intramuscular or intravenous treatment within 4 weeks. Other exclusion criteria included any previous use of recombinant interleukin-1 receptor antagonist (IL1-Ra) and patients who were pregnant or nursing.
Efficacy data are presented using descriptive statistics, contrasting initial dosage groups or according to previous DMARD failure. For comparison of groups according to initial dosage on a continuous variable, Student test (with Satterwhaite correction for unequal variance) or Wilcoxon test were used when normality was not rejected or rejected, respectively (normality determined via the Shapiro-Wilk test). For the same comparison on a qualitative variable, Chi-square or Fisher Exact test (if the Chi-square hypotheses were not filled) were used. The rate of patients achieving the various ACR response variables after 12 weeks of treatment (remission rate) are presented in terms of percentage and number of patients. Patients were assigned to either 3 or 6 mg/kg/day treatment groups based upon a randomisation schedule generated for packaging and labelling by the Biostatistics Section of AB Science. Individual treatment doses to be administered were supplied in sealed envelopes to be opened by the investigator at time of inclusion. Patients received the treatment from the investigator on an open basis.
Due to the relatively high patient drop-out rate of this study, analysis was conducted on two different datasets: one with an imputation of missing values according to the last observation carried forward (LOCF) methodology and the other in the absence of data imputation, i.e. the observed cases (OC). Analysis for efficacy was performed on a modified Intention-To-Treat (ITT) population and Per Protocol (PP) population. […] The PP population was defined as a subgroup of the ITT population that in addition had presented no major protocol deviations and had completed at least 28 days of treatment exposure.

[1] = Total population (n = 40), ITT population
[2] = W 24, extension phase, ITT population, n = 4
[3] = W 24, extension phase, ITT population, n = 7
[4] = W 36, extension phase, ITT population, n = 5
[5] = W 36, extension phase, ITT population, n = 9
[6] = W 36, extension phase, ITT population, n = 12
[7] = W 48, extension phase, ITT population, n = 6
[8] = W 48, extension phase, ITT population, n = 8
[9] = W 48, extension phase, ITT population, n = 9
[10] = W 60, extension phase, ITT population, n = 7
[11] = W 60, extension phase, ITT population, n = 8

In the case of `Cc1ccc(NC(=O)c2ccc(CN3CCN(C)CC3)cc2)cc1Nc1nc(-c2cccnc2)cs1` [masitinib, 4-(4-methylpiperazin-1-ylmethyl)-N-[4-methyl-3-(4-pyridin-3ylthiazol-2-ylamino)phenyl]benzamide], the “Non-responders (failed to reach ACR20) after dose augmentation” value (3 mg/kg/day group, 12 patients augmented at weeks 4 or 8) is reported as 42%, the “Patients with improved response after dose augmentation” value (3 mg/kg/day group, 12 patients augmented at weeks 4 or 8, initial 12-week phase) is reported as 58% and the “Dose response analyses: dose level” value (6 mg/kg/day) is reported as “most potent”. For the same compound, the “Highest response rate for the ACR50 threshold by dose at first response” value (5/15, dosage not given) was 33.3%, the “Time to first response ACR20, Mean ± SD” value [1] was 46.3 ± 22.4 days and the “Time to first response ACR20, Median” value [1] was 35.0 days. For the same compound, the “Time to first response ACR20, Min-Max” value [1] was 28.0 to 105.0 days, the “Time to first response ACR50, Mean ± SD” value [1] was 89.1 ± 58.2 days and the “Time to first response ACR50, Median” value [1] was 84.0 days. The “Time to first response ACR50, Min-Max” value [1] was 28.0 to 217.0 days, the “DAS28 <2.6, patients” value (W 12, ITT population, n = 24) was 1 (4.%) and the “DAS28 Mean ± SD” value (W 12, ITT population, n = 24) was 4.6 ± 1.3. For the same compound, the “DAS28 Median” value (W 12, ITT population, n = 24) was 4.4, the “DAS28 Min-Max” value (W 12, ITT population, n = 24) was 0.5-7.0 and the “DAS28 ≦3.2, patients” value (W 12, ITT population, n = 24) was 1 (4%). The “ACR20, patients reaching level” value (W 12, ITT population, n = 27) was 15 (56%), the “ACR50, patients reaching level” value (W 12, ITT population, n = 27) was 9 (33%) and the “ACR70, patients reaching level” value (W 12, ITT population, n = 27) was 3 (11%). The “ACR90, patients reaching level” value (W 12, ITT population, n = 27) was 0 (0%), the “ACRn Mean ± SD” value (W 12, ITT population, n = 27) was 31.6 ± 33.5 and the “ACRn Median” value (W 12, ITT population, n = 27) was 42.9. For the same compound, the “ACRn Min-Max” value (W 12, ITT population, n = 27) was −40.0-87.5, the “CRP 0% < Improvement ≦25%, patients” value (W 12, ITT population, n = 28) was 5 (18%) and the “CRP 25% < Improvement ≦50%, patients” value (W 12, ITT population, n = 28) was 3 (11%). For the same compound, the “CRP Deterioration, patients” value (W 12, ITT population, n = 28) was 3 (11%), the “CRP Improvement >50%, patients” value (W 12, ITT population, n = 28) was 14 (50%) and the “CRP Stable, patients” value (W 12, ITT population, n = 28) was 3 (11%). The “DAS28 <2.6, patients” value [2] was 0 (0%), the “DAS28 Mean ± SD” value [2] was 5.2 ± 1.7 and the “DAS28 Median” value [2] was 4.9. The “DAS28 Min-Max” value [2] was 3.6-7.5, the “DAS28 ≦3.2, patients” value [2] was 0 (0%) and the “ACR20, patients reaching level” value [3] was 6 (86%). The “ACR50, patients reaching level” value [3] was 2 (27%), the “ACR70, patients reaching level” value [3] was 1 (14%) and the “ACR90, patients reaching level” value [3] was 0 (0%). The “ACRn Mean ± SD” value [3] was 36.0 ± 29.0, the “ACRn Median” value [3] was 40.7 and the “ACRn Min-Max” value [3] was −16.7-73.0. For the same compound, the “CRP 0% < Improvement ≦25%, patients” value [3] was 1 (14%), the “CRP 25% < Improvement ≦50%, patients” value [3] was 0 (0%) and the “CRP Deterioration, patients” value [3] was 0 (0%). The “CRP Improvement >50%, patients” value [3] was 5 (71%), the “CRP Stable, patients” value [3] was 1 (14%) and the “DAS28 <2.6, patients” value [4] was 1 (20%). For the same compound, the “DAS28 Mean ± SD” value [4] was 4.4 ± 1.9, the “DAS28 Median” value [4] was 4.1 and the “DAS28 Min-Max” value [4] was 2.3-7.5. The “DAS28 ≦3.2, patients” value [4] was 1 (20%), the “ACR20, patients reaching level” value [5] was 7 (78%) and the “ACR50, patients reaching level” value [5] was 4 (44%). The “ACR70, patients reaching level” value [5] was 2 (22%), the “ACR90, patients reaching level” value [5] was 1 (11%) and the “ACRn Mean ± SD” value [5] was 45.9 ± 32.3. The “ACRn Median” value [5] was 45.5, the “ACRn Min-Max” value [5] was −3.8-93.3 and the “CRP 0% < Improvement ≦25%, patients” value [6] was 1 (8%). The “CRP 25% < Improvement ≦50%, patients” value [6] was 1 (8%), the “CRP Deterioration, patients” value [6] was 0 (0%) and the “CRP Improvement >50%, patients” value [6] was 9 (75%). The “CRP Stable, patients” value [6] was 1 (8%), the “DAS28 <2.6, patients” value [7] was 0 (0%) and the “DAS28 Mean ± SD” value [7] was 4.7 ± 2.1. The “DAS28 Median” value [7] was 4.4, the “DAS28 Min-Max” value [7] was 2.7-8.7 and the “DAS28 ≦3.2, patients” value [7] was 2 (33%). The “ACR20, patients reaching level” value [8] was 5 (63%), the “ACR50, patients reaching level” value [8] was 3 (38%) and the “ACR70, patients reaching level” value [8] was 1 (13%). The “ACR90, patients reaching level” value [8] was 0 (0%), the “ACRn Mean ± SD” value [8] was 30.9 ± 36.7 and the “ACRn Median” value [8] was 40.0. For the same compound, the “ACRn Min-Max” value [8] was −20.0-70.9, the “CRP 0% < Improvement ≦25%, patients” value [9] was 1 (11%) and the “CRP 25% < Improvement ≦50%, patients” value [9] was 0 (0%). The “CRP Deterioration, patients” value [9] was 2 (22%), the “CRP Improvement >50%, patients” value [9] was 6 (67%) and the “CRP Stable, patients” value [9] was 0 (0%). The “CRP 0% < Improvement ≦25%, patients” value [10] was 1 (14%), the “CRP 25% < Improvement ≦50%, patients” value [10] was 3 (43%) and the “CRP Deterioration, patients” value [10] was 0 (0%). The “CRP Improvement >50%, patients” value [10] was 3 (43%), the “CRP Stable, patients” value [10] was 0 (0%) and the “DAS28 <2.6, patients” value [10] was 4 (57%). The “DAS28 Mean ± SD” value [10] was 3.3 ± 1.5, the “DAS28 Median” value [10] was 2.6 and the “DAS28 Min-Max” value [10] was 1.7-5.3. For the same compound, the “DAS28 ≦3.2, patients” value [10] was 4 (57%), the “ACR20, patients reaching level” value [11] was 6 (75%) and the “ACR50, patients reaching level” value [11] was 6 (75%). For the same compound, the “ACR70, patients reaching level” value [11] was 3 (38%), the “ACR90, patients reaching level” value [11] was 2 (25%) and the “ACRn Mean ± SD” value [11] was 58.3 ± 31.4.
